{"source": "patent US20060241177A1", "about": "“Novel compounds, pharmaceutical compositions containing same, and methods of use for same” (priority 2002, published 2006)", "key": {"[1]": {"test_system": "HCT-116 human colon cancer xenografts", "experiment": "In vivo anti-tumor test, HCT-116 subcutaneous flank xenografts", "set-up": "species or system nu/nu female mice", "details": "10 mg/kg i.p. repeated, 11 treated animals, day 10, from repeated i.p. injection", "method": "In Vivo Testing for Anti-Tumor Activity\nSubcutaneous flank xenografts of the human colon cancer cell line, HCT-116 in nu/nu female mice (Harlan) were used to study the anti-tumor effects of Compound 1 in vivo. All animal experiments complied with institutional animal care guidelines. 10^7 HCT-116 cells (˜0.1 ml packed cells) were xenografted from culture in DMEM supplemented with 10% FBS into […]. Treatment began when measurable tumors developed about 3 days after inoculation. Compound 1 (10 mg/kg) was diluted into 40 μl DMSO and treated intraperitoneally (i.p.) 11 animals received JMM-III-231 10 mg/kg, i.p., at days indicated by arrows, and 11 received DMSO control. Tumors were measured on days indicated. […] Error bars represent standard error of the mean."}, "[2]": {"target": "rat liver acyl-CoA synthetase", "details": "Tomoda et al. 1987; Omura et al. 1986; read-out: 50% inhibition of rat liver acyl-CoA synthetase; cited from earlier work"}, "Raji cells": {"test_system": "Raji cells", "details": "Tomoda et al. 1991; cited from earlier work"}, "viral HIV protease": {"target": "viral HIV protease (Human immunodeficiency virus type 1 group M subtype B, UniProt P04585)", "details": "Moelling et al. 1990; cited from earlier work"}}}
{"smiles": "C=CCNC(=O)C1C(=C)C(=O)O[C@H]1CCCCCCCC", "note": "(mixture of isomers) [Compound 1, (±)-α-Methylene-γ-butyrolactone-5-octyl-4-allyl amide]", "values": [{"measurement": "Death of treated mice in xenograft study", "setting": "[1]", "result": "One Compound 1 treated mouse died on day 10"}]}
{"smiles": "CCCC=CCC=CC=CC=NN=NO", "note": "[Triacsin C, 1-hydroxy-3-(E, E, E-2′,4′,7′-undecatrienylidine) triazene]", "values": [{"measurement": "IC50", "setting": "[2]", "result": 8.7, "unit": "µM"}, {"measurement": "concentration causing growth inhibition in Raji cells", "setting": "Raji cells", "result": 1.0, "unit": "µM"}]}
{"smiles": "C/C=C/C/C=C/CCC(=O)[C@H]1O[C@H]1C(N)=O", "note": "[cerulenin, (2S,3R)-2,3-epoxy-4-oxo-7,10 dodecadienoyl amide]", "values": [{"measurement": "concentration for inhibition of viral HIV protease", "setting": "viral HIV protease", "result": 5, "unit": "mg/mL"}]}
